Measurements taken from US7247634B2, “Rifamycin derivatives effective against drug-resistant microbes” (Cumbre Pharmaceuticals Inc., priority 2004, dated 2007).
≈ marks a conversion by molar mass, not a printed value.

Legend:
Type in all cases: cell-based
[1] = tested on: Staphylococcus aureus EN1252a gyrA^S84L grlA^S80F; assay: microbe, parasite or virus in culture; details: read-out: Antimicrobial activity (MIC)
Experimental: (§1) Representative compounds were assayed for antimicrobial activity as follows: Minimum Inhibitory Concentrations (“MICs”) were determined by the microbroth dilution method as per NCCLS guidelines (National Committee for Clinical Laboratory Standards. 2000. Methods for dilution antimicrobial susceptibility tests for bacteria that grow aerobically, 5th ed. M7-A5. National Committee for Clinical Laboratory Standards, Wayne, Pa.), except that all growth incubations were conducted at 37° C. Bacterial cultures were tested in the following bacteriological media: S. aureus, S. epidermidis, and E. coli in Cation-Adjusted Mueller-Hinton Broth, S. pneumoniae in THY Broth supplemented with 1 mg/mL catalase under 5% CO2 atmosphere, S. pyogenes in THY Broth, E. faecalis in BHI Broth, H. influenzae in BHI Broth supplemented with 0.75 μL of 1 mg/mL NAD and 150 μL of 1 mg/ml hematin per 5 mL, and M. smegmatis in Middlebrook Broth plus ADC Enrichment.
(§2) S. aureus ATCC 29213 RpoB^H418Y is a rifampin-resistant strain with a mutation in RNA polymerase, the biological target of rifamycin antibiotics. […] S. aureus EN1252a gyrA^S84L grlA^S80F is a quinolone-resistant strain due to double mutations to DNA gyrase and topoisomerase IV, the two biological targets for quinolone antibiotics.

[2] = tested on: Staphylococcus aureus ATCC29213 rpoB^H418Y; assay: microbe, parasite or virus in culture; details: ATCC29213, read-out: Antimicrobial activity (MIC)
Experimental: as §1, §2

[3] = tested on: Staphylococcus aureus ATCC29213 rpoB^D417Y; assay: microbe, parasite or virus in culture; details: ATCC29213, read-out: Antimicrobial activity (MIC)
Experimental: as §1, §2

[4] = tested on: Staphylococcus epidermidis ATCC12228; assay: MIC, microbroth dilution (NCCLS); details: rifS strain, Cation-Adjusted Mueller-Hinton Broth, 37° C., read-out: Antimicrobial activity (MIC)
[5] = tested on: Enterococcus faecalis ATCC29212; assay: MIC, microbroth dilution (NCCLS); details: rifS strain, BHI Broth, 37° C., read-out: Antimicrobial activity (MIC)
[6] = tested on: Haemophilus influenzae ATCC10211; assay: MIC, microbroth dilution (NCCLS); details: rifS strain, BHI Broth with NAD and hematin, 37° C., read-out: Antimicrobial activity (MIC)
[7] = tested on: Mycobacterium smegmatis ATCC700084; assay: MIC, microbroth dilution (NCCLS); details: Mycolicibacterium smegmatis, rifS strain, Middlebrook Broth plus ADC Enrichment, 37° C., read-out: Antimicrobial activity (MIC)
[8] = tested on: Streptococcus pneumoniae ATCC6303; assay: MIC, microbroth dilution (NCCLS); details: rifS strain, THY Broth with 1 mg/mL catalase, 5% CO2, 37° C., read-out: Antimicrobial activity (MIC)
[9] = tested on: Escherichia coli ATCC25922; assay: MIC, microbroth dilution (NCCLS); details: rifS strain, Cation-Adjusted Mueller-Hinton Broth, 37° C., read-out: Antimicrobial activity (MIC)
[10] = tested on: Streptococcus pyogenes ATCC19615; assay: MIC, microbroth dilution (NCCLS); details: rifS strain, THY Broth, 37° C., read-out: Antimicrobial activity (MIC)
[11] = tested on: Staphylococcus aureus ATCC29213; assay: MIC, microbroth dilution (NCCLS); details: rifS strain, Cation-Adjusted Mueller-Hinton Broth, 37° C., read-out: Antimicrobial activity (MIC)

| Compound | MIC [1] | MIC [2] | MIC [3] | MIC [4] | MIC [5] | MIC [6] | MIC [7] | MIC [8] | MIC [9] | MIC [10] | MIC [11] |
| --- | --- | --- | --- | --- | --- | --- | --- | --- | --- | --- | --- |
| CO[C@H]1/C=C/O[C@@]2(C)Oc3c(C)c(O)c4c(c3C2=O)C(=O)C(N2CCN(c3nc5c(cc3F)c(=O)c(C(=O)O)cn5-c3ccc(F)cc3F)CC2)=C(NC(=O)/C(C)=C\C=C\[C@H](C)[C@H](O)[C@@H](C)[C@@H](O)[C@@H](C)[C@H](OC(C)=O)[C@@H]1C)C4=O [Example 5, 3-[4-(3-Carboxy-1-(2,4-difluorophenyl)-6-fluoro-4-oxo-1,4-dihydronaphthyridin-7-yl)piperazin-1-yl]rifamycin S] | 0.004 to 0.5 µg/mL (≈ 0.00364 to 0.455 µM) | 0.06 to 16 µg/mL (≈ 0.0546 to 14.6 µM) | 0.06 to 32 µg/mL (≈ 0.0546 to 29.1 µM) | 0.008 to 0.063 µg/mL (≈ 0.00729 to 0.0574 µM) | 2 to 32 µg/mL (≈ 1.82 to 29.1 µM) | 0.125 to 2 µg/mL (≈ 0.114 to 1.82 µM) | 0.5 to 64 µg/mL | 0.008 to 0.125 µg/mL (≈ 0.00729 to 0.114 µM) | 0.125 to 8 µg/mL (≈ 0.114 to 7.29 µM) | 0.008 to 0.063 µg/mL (≈ 0.00729 to 0.0574 µM) | 0.004 to 0.5 µg/mL (≈ 0.00364 to 0.455 µM) |
| CO[C@H]1/C=C/O[C@@]2(C)Oc3c(C)c(O)c4c(c3C2=O)C(=O)C(N2CCC(CCCC3CCN(c5nc6c(cc5F)c(=O)c(C(=O)O)cn6-c5ccc(F)cc5F)CC3)CC2)=C(NC(=O)/C(C)=C\C=C\[C@H](C)[C@H](O)[C@@H](C)[C@@H](O)[C@@H](C)[C@H](OC(C)=O)[C@@H]1C)C4=O [Example 6, 3-[4-[3-[1-[3-Carboxy-1-(2,4-difluorophenyl)-6-fluoro-4-oxo-1,4-dihydronaphthyridin-7-yl]piperidin-4-yl]propyl]piperidin-1-yl]rifamycin S] | 0.004 to 0.5 µg/mL (≈ 0.00327 to 0.409 µM) | 0.06 to 16 µg/mL (≈ 0.0491 to 13.1 µM) | 0.06 to 32 µg/mL (≈ 0.0491 to 26.2 µM) | 0.008 to 0.063 µg/mL (≈ 0.00654 to 0.0515 µM) | 2 to 32 µg/mL (≈ 1.64 to 26.2 µM) | 0.125 to 2 µg/mL (≈ 0.102 to 1.64 µM) | 0.5 to 64 µg/mL | 0.008 to 0.125 µg/mL (≈ 0.00654 to 0.102 µM) | 0.125 to 8 µg/mL (≈ 0.102 to 6.54 µM) | 0.008 to 0.063 µg/mL (≈ 0.00654 to 0.0515 µM) | 0.004 to 0.5 µg/mL (≈ 0.00327 to 0.409 µM) |
| CO[C@H]1/C=C/O[C@@]2(C)Oc3c(C)c(O)c4c(c3C2=O)C(=O)C(N[C@@H]2CCN(c3cc5c(cc3F)c(=O)c(C(=O)O)cn5C3CC3)C2)=C(NC(=O)/C(C)=C\C=C\[C@H](C)[C@H](O)[C@@H](C)[C@@H](O)[C@@H](C)[C@H](OC(C)=O)[C@@H]1C)C4=O [Example 8, (R)-3-[1-(3-Carboxy-1-cyclopropyl-6-fluoro-4-oxo-1,4-dihydroquinolin-7-yl)-pyrrolidin-3-ylamino]rifamycin S] | 0.004 to 0.5 µg/mL (≈ 0.0039 to 0.488 µM) | 0.06 to 16 µg/mL (≈ 0.0585 to 15.6 µM) | 0.06 to 32 µg/mL (≈ 0.0585 to 31.2 µM) | 0.008 to 0.063 µg/mL (≈ 0.0078 to 0.0615 µM) | 2 to 32 µg/mL (≈ 1.95 to 31.2 µM) | 0.125 to 2 µg/mL (≈ 0.122 to 1.95 µM) | 0.5 to 64 µg/mL | 0.008 to 0.125 µg/mL (≈ 0.0078 to 0.122 µM) | 0.125 to 8 µg/mL (≈ 0.122 to 7.8 µM) | 0.008 to 0.063 µg/mL (≈ 0.0078 to 0.0615 µM) | 0.004 to 0.5 µg/mL (≈ 0.0039 to 0.488 µM) |
| CO[C@H]1/C=C/O[C@@]2(C)Oc3c(C)c(O)c4c(c3C2=O)C(=O)C(N[C@H]2CCN(c3cc5c(cc3F)c(=O)c(C(=O)O)cn5C3CC3)C2)=C(NC(=O)/C(C)=C\C=C\[C@H](C)[C@H](O)[C@@H](C)[C@@H](O)[C@@H](C)[C@H](OC(C)=O)[C@@H]1C)C4=O [Example 9, (S)-3-[1-(3-Carboxy-1-cyclopropyl-6-fluoro-4-oxo-1,4-dihydroquinolin-7-yl)-pyrrolidin-3-ylamino]rifamycin S] | 0.004 to 0.5 µg/mL (≈ 0.0039 to 0.488 µM) | 0.06 to 16 µg/mL (≈ 0.0585 to 15.6 µM) | 0.06 to 32 µg/mL (≈ 0.0585 to 31.2 µM) | 0.008 to 0.063 µg/mL (≈ 0.0078 to 0.0615 µM) | 2 to 32 µg/mL (≈ 1.95 to 31.2 µM) | 0.125 to 2 µg/mL (≈ 0.122 to 1.95 µM) | 0.5 to 64 µg/mL | 0.008 to 0.125 µg/mL (≈ 0.0078 to 0.122 µM) | 0.125 to 8 µg/mL (≈ 0.122 to 7.8 µM) | 0.008 to 0.063 µg/mL (≈ 0.0078 to 0.0615 µM) | 0.004 to 0.5 µg/mL (≈ 0.0039 to 0.488 µM) |
| COc1c(N2CCN(C3=C4NC(=O)/C(C)=C\C=C\[C@H](C)[C@H](O)[C@@H](C)[C@@H](O)[C@@H](C)[C@H](OC(C)=O)[C@H](C)[C@@H](OC)/C=C/O[C@@]5(C)Oc6c(C)c(O)c(c(c6C5=O)C3=O)C4=O)C(C)C2)c(F)cc2c(=O)c(C(=O)O)cn(C3CC3)c12 (stereo partly drawn) [Example 10, (R,S)-3-[4-(3-Carboxy-1-cyclopropyl-6-fluoro-8-methoxy-4-oxo-1,4-dihydroquinolin-7-yl)-2-methylpiperazin-1-yl]rifamycin S] | 0.004 to 0.5 µg/mL (≈ 0.00374 to 0.468 µM) | 0.06 to 16 µg/mL (≈ 0.0561 to 15 µM) | 0.06 to 32 µg/mL (≈ 0.0561 to 29.9 µM) | 0.008 to 0.063 µg/mL (≈ 0.00748 to 0.0589 µM) | 2 to 32 µg/mL (≈ 1.87 to 29.9 µM) | 0.125 to 2 µg/mL (≈ 0.117 to 1.87 µM) | 0.5 to 64 µg/mL | 0.008 to 0.125 µg/mL (≈ 0.00748 to 0.117 µM) | 0.125 to 8 µg/mL (≈ 0.117 to 7.48 µM) | 0.008 to 0.063 µg/mL (≈ 0.00748 to 0.0589 µM) | 0.004 to 0.5 µg/mL (≈ 0.00374 to 0.468 µM) |
